ChEMBL document CHEMBL5360561, “Design, synthesis and biological evaluation of fluorinated selective estrogen receptor degraders (FSERDs) --- A promising strategy for advanced ER positive breast cancer” (Eur J Med Chem, 2023)
Activity calls are given as the source filed them. The rule behind the calls is not given here.

How the values were obtained:
MCF7 [1] = test: Antiproliferative activity against human MCF7 cells assessed as cell growth inhibition incubated for 5 days by MTT assay; format: functional, cell-based; settings: MCF7, 120 h
Ishikawa = test: Antiproliferative activity against human Ishikawa cells assessed as cell growth inhibition at 20 uM incubated for 3 days by MTT assay; format: functional; settings: for inhibition at 20 µM: 72 h, time 3 day; for inhibition: time 3.0 day
MCF7 [2] = test: Induction of ER degradation in human MCF7 cells at 10 uM incubated for 24 hrs by Western blot analysis; format: cell-based
[3] = Plasma concentration in ICR mouse at 100 mg/kg, po and measured after 0.25 hrs by LC-MS analysis; format: ADME, organism-based
[4] = Plasma concentration in ICR mouse at 100 mg/kg, po and measured after 0.5 hrs by LC-MS analysis; format: ADME, organism-based
[5] = Plasma concentration in ICR mouse at 100 mg/kg, po and measured after 1 hrs by LC-MS analysis; format: ADME, organism-based
[6] = Toxicity in Sprague-Dawley rat uterus assessed as increase in uterine wet weight at 0.1 mg/kg, po for 2 days consecutively; format: organism-based; settings: in vivo, 48 h, time 2 day
MCF7 [7] = test: Induction of cell cycle arrest in human MCF7 cells assessed as accumulation at G0/G1 phase at 10 uM incubated for 24 hrs by flow cytometry (Rvb= 46.53 +/- 0.44%); format: functional
MCF7 [8] = test: Antitumor activity against human MCF7 cells xenografted in nude mouse assessed as tumor growth inhibition at 10 mg/kg,po for 30 days; format: functional, organism-based; settings: time 30.0 day
MCF7 [9] = test: Induction of ER degradation in human MCF7 cells at 0.001 to 10 uM incubated for 24 hrs by Western blot analysis; format: cell-based; settings: dose 0.001-10 µM
MCF7 [10] = test: Induction of ER degradation in human MCF7 cells at 10 uM incubated for 24 hrs by DAPI staining based immunofluorescence analysis; format: cell-based
MCF7 [11] = test: Induction of ER degradation in Estradiol stimulated human MCF7 cells assessed as decrease in GREB1 mRNA expression level at 1 to 10 uM incubated for 24 hrs by RT-qPCR analysis; format: cell-based; settings: dose 1-10 µM
MCF7 [12] = test: Induction of ER degradation in Estradiol stimulated human MCF7 cells assessed as decrease in PGR gene expression level at 1 to 10 uM incubated for 24 hrs by RT-qPCR analysis; format: cell-based; settings: dose 1-10 µM
MCF7 [13] = test: Induction of ER degradation in Estradiol stimulated human MCF7 cells assessed as decrease in TFF1 gene expression level at 1 to 10 uM incubated for 24 hrs by RT-qPCR analysis; format: cell-based; settings: dose 1-10 µM
MCF7 [14] = test: Induction of ER degradation in human MCF7 cells transfected with ERE-luciferase plasmid assessed as decrease in estradiol induced ERE-luciferase activity by measuring luminescence at 10 uM incubated for 24 hrs by luciferase assay; format: cell-based
MCF7 [15] = test: Antitumor activity against human MCF7 cells xenografted in nude mouse assessed as tumor growth inhibition at 30 mg/kg,po for 30 days daily; format: functional, organism-based; settings: time 30.0 day
[16] = Toxicity in mouse xenografted with human MCF7 cells assessed as body weight loss at 30 mg/kg,po for 30 days daily; format: organism-based; settings: in vivo, 720 h, time 30 day
[17] = Toxicity in mouse xenografted with human MCF7 cells assessed as morphological changes in heart at 30 mg/kg,po for 30 days daily by Hematoxylin and eosin staining based microscopy; format: organism-based; settings: in vivo, 720 h, time 30 day
[18] = Toxicity in mouse xenografted with human MCF7 cells assessed as morphological changes in liver at 30 mg/kg,po for 30 days daily by Hematoxylin and eosin staining based microscopy; format: organism-based; settings: in vivo, 720 h, time 30 day
[19] = Toxicity in mouse xenografted with human MCF7 cells assessed as morphological changes in spleen at 30 mg/kg,po for 30 days daily by Hematoxylin and eosin staining based microscopy; format: organism-based; settings: in vivo, 720 h, time 30 day
[20] = Toxicity in mouse xenografted with human MCF7 cells assessed as morphological changes in kidney at 30 mg/kg,po for 30 days daily by Hematoxylin and eosin staining based microscopy; format: organism-based; settings: in vivo, 720 h, time 30 day
MCF7 [21] = test: Antitumor activity against human MCF7 cells xenografted in nude mouse assessed as reduction in Ki67 expression at 30 mg/kg,po for 30 days daily by immunohistochemical analysis; format: functional, organism-based; settings: time 30.0 day
Mus musculus [22] = test: In vivo ER degradation in mouse xenografted with human MCF7 cells assessed as reduction in ER expression level in tumor at 30 mg/kg,po for 30 days daily by […]; format: functional, organism-based; settings: time 30.0 day
Mus musculus [23] = test: In vivo ER degradation in mouse xenografted with human MCF7 cells assessed as reduction in PR expression level in tumor at 30 mg/kg,po for 30 days daily by […]; format: functional, organism-based; settings: time 30.0 day
[24] = Toxicity in Sprague-Dawley rat uterus assessed as change in uterine wet weight at 30 mg/kg, po for 2 days consecutively; format: organism-based; settings: in vivo, 48 h, time 2 day
[25] = Half life in ICR mouse at 3 mg/kg, iv and measured upto 24 hrs by LC-MS analysis; format: ADME, organism-based; settings: in vivo
[26] = Tmax in ICR mouse at 3 mg/kg, iv and measured upto 24 hrs by LC-MS analysis; format: ADME, organism-based; settings: in vivo
[27] = Cmax in ICR mouse at 3 mg/kg, iv and measured upto 24 hrs by LC-MS analysis; format: ADME, organism-based; parameters: dose 3 mg/kg, time < 24 hrs, route iv; settings: in vivo
[28] = C0 in ICR mouse at 3 mg/kg, iv and measured upto 24 hrs by LC-MS analysis; format: ADME, organism-based; settings: in vivo
[29] = AUCt in ICR mouse at 3 mg/kg, iv and measured upto 24 hrs by LC-MS analysis; format: ADME, organism-based; parameters: dose 3 mg/kg, time < 24 hrs, route iv; settings: in vivo
[30] = AUC (0 to infinity) in ICR mouse at 3 mg/kg, iv and measured upto 24 hrs by LC-MS analysis; format: ADME, organism-based; parameters: time < 24 hrs, dose 3 mg/kg, route iv; settings: in vivo
[31] = Apparent volume of distribution in ICR mouse at 3 mg/kg, iv and measured upto 24 hrs by LC-MS analysis; format: ADME, organism-based; settings: in vivo, read-out: Vz
[32] = Clearance in ICR mouse at 3 mg/kg, iv and measured upto 24 hrs by LC-MS analysis; format: ADME, organism-based; settings: in vivo
[33] = MRT(t) in ICR mouse at 3 mg/kg, iv and measured upto 24 hrs by LC-MS analysis; format: ADME, organism-based; settings: in vivo
[34] = MRT (0 to infinity) in ICR mouse at 3 mg/kg, iv and measured upto 24 hrs by LC-MS analysis; format: ADME, organism-based; settings: in vivo
[35] = Half life in ICR mouse at 30 mg/kg, po and measured upto 24 hrs by LC-MS analysis; format: ADME, organism-based; settings: in vivo
[36] = Tmax in ICR mouse at 30 mg/kg, po and measured upto 24 hrs by LC-MS analysis; format: ADME, organism-based; settings: in vivo
[37] = Cmax in ICR mouse at 30 mg/kg, po and measured upto 24 hrs by LC-MS analysis; format: ADME, organism-based; parameters: time < 24 hrs, dose 30 mg/kg, route po; settings: in vivo
[38] = AUCt in ICR mouse at 30 mg/kg, po and measured upto 24 hrs by LC-MS analysis; format: ADME, organism-based; parameters: time < 24 hrs, dose 30 mg/kg, route po; settings: in vivo
[39] = AUC (0 to infinity) in ICR mouse at 30 mg/kg, po and measured upto 24 hrs by LC-MS analysis; format: ADME, organism-based; parameters: time < 24 hrs, dose 30 mg/kg, route po; settings: in vivo
[40] = MRT(t) in ICR mouse at 30 mg/kg, po and measured upto 24 hrs by LC-MS analysis; format: ADME, organism-based; settings: in vivo
[41] = MRT (0 to infinity) in ICR mouse at 30 mg/kg, po and measured upto 24 hrs by LC-MS analysis; format: ADME, organism-based; settings: in vivo
[42] = Oral bioavailability in ICR mouse at 30 mg/kg and measured upto 24 hrs by LC-MS analysis; format: ADME, organism-based; settings: in vivo

SMILES: O=C(O)/C=C/c1ccc(Oc2c(C(=O)c3cccc4sccc34)sc3cc(F)ccc23)cc1
- IC50 (MCF7 [1]): 4280 nM
- inhibition at 20 µM (Ishikawa): 12%
- Activity (MCF7 [2]): Active

SMILES: O=C(O)/C=C/c1ccc(Oc2c(C(=O)c3ccccc3)sc3cc(F)ccc23)cc1
- IC50 (MCF7 [1]): 2120 nM
- inhibition at 20 µM (Ishikawa): 8%
- Activity (MCF7 [2]): Active
- concentration at 0.25 h [3]: 9860 ng/mL
- concentration at 0.5 h [4]: 16000 ng/mL
- concentration at 1 h [5]: 15600 ng/mL

SMILES: O=C(O)/C=C/c1ccc(Oc2c(C(=O)c3ccccc3)sc3cc(F)ccc23)cc1F
- IC50 (MCF7 [1]): 1530 nM
- inhibition (Ishikawa): inactive
- Activity (MCF7 [2]): Active

SMILES: CCc1ccccc1C(=O)c1sc2cc(F)ccc2c1Oc1ccc(/C=C/C(=O)O)cc1
- IC50 (MCF7 [1]): 370 nM
- inhibition at 20 µM (Ishikawa): 12%
- Activity (MCF7 [2]): Active

SMILES: C[C@]12CC[C@@H]3c4ccc(O)cc4CC[C@H]3[C@@H]1CC[C@@H]2O [ESTRADIOL]
- Activity [6]: Toxic

SMILES: O=C(O)/C=C/c1ccc(Oc2c(C(=O)c3ccc4occc4c3)sc3cc(F)ccc23)cc1
- IC50 (MCF7 [1]): 1880 nM
- inhibition at 20 µM (Ishikawa): 12%
- Activity (MCF7 [2]): Active

SMILES: O=C(O)/C=C/c1ccc(Oc2c(C(=O)c3ccc(OC(F)(F)F)cc3)sc3cc(F)ccc23)cc1
- IC50 (MCF7 [1]): 1440 nM
- inhibition at 20 µM (Ishikawa): 18%
- Activity (MCF7 [2]): Active

SMILES: C[C@]12CC[C@@H]3c4ccc(O)cc4C[C@@H](CCCCCCCCC[S+]([O-])CCCC(F)(F)C(F)(F)F)[C@H]3[C@@H]1CC[C@@H]2O (stereo partly specified) [FULVESTRANT]
- IC50 (MCF7 [1]): 0.1 nM
- inhibition (Ishikawa): inactive
- Activity (MCF7 [7]): 62.28%
- Activity (MCF7 [8]): Active

SMILES: CC(C)c1ccccc1C(=O)c1sc2cc(F)ccc2c1Oc1ccc(/C=C/C(=O)O)cc1
- IC50 (MCF7 [1]): 320 nM
- inhibition (Ishikawa): inactive
- Activity (MCF7 [2]): Active

SMILES: Cc1ccc(C(=O)c2sc3cc(F)ccc3c2Oc2ccc(/C=C/C(=O)O)cc2)c(C)c1
- IC50 (MCF7 [1]): 200 nM
- inhibition at 20 µM (Ishikawa): 13%
- Activity (MCF7 [2]): Active
- Activity (MCF7 [9]): Dose-Dependent Effect
- Activity (MCF7 [10]): Active
- Activity (MCF7 [11]): Active
- Activity (MCF7 [12]): Active
- Activity (MCF7 [13]): Active
- Activity (MCF7 [14]): Active
- Activity (MCF7 [7]): 57.36%
- Activity (MCF7 [15]): Active
- Activity [16]: Non-Toxic
- Activity [17]: Non-Toxic
- Activity [18]: Non-Toxic
- Activity [19]: Non-Toxic
- Activity [20]: Non-Toxic
- Activity (MCF7 [21]): Active
- Activity (Mus musculus [22]): Active
- Activity (Mus musculus [23]): Active
- Activity [24]: Non-Toxic

SMILES: Cc1cc(F)cc(C)c1C(=O)c1sc2cc(O)ccc2c1Oc1ccc(/C=C/C(=O)O)cc1 [RINTODESTRANT]
- concentration at 0.5 h [4]: 4500 ng/mL

SMILES: Cc1cc(Cl)cc(C)c1C(=O)c1sc2cc(F)ccc2c1Oc1ccc(/C=C/C(=O)O)cc1
- IC50 (MCF7 [1]): 560 nM
- inhibition at 20 µM (Ishikawa): 6%
- Activity (MCF7 [2]): Active

SMILES: Cc1cc(F)cc(C)c1C(=O)c1sc2cc(F)ccc2c1Oc1ccc(/C=C/C(=O)O)cc1
- IC50 (MCF7 [1]): 55 nM
- inhibition at 20 µM (Ishikawa): 12%
- Activity (MCF7 [2]): Active
- Activity (MCF7 [9]): Dose-Dependent Effect
- Activity (MCF7 [10]): Active
- Activity (MCF7 [11]): Active
- Activity (MCF7 [12]): Active
- Activity (MCF7 [13]): Active
- Activity (MCF7 [14]): Active
- Activity (MCF7 [7]): 56.1%
- half-life [25]: 1.23 h
- Tmax [26]: 1.8 min
- Cmax [27]: 4500 ng/mL
- C0 at 24 h [28]: 4840 ng/mL
- AUC(0-t) at 24 h [29]: 4610 ng·h/mL
- AUC(0-inf) [30]: 4640 ng·h/mL
- Vd [31]: 1.13 L/kg
- clearance [32]: 11 mL/min/kg
- MRT last at 24 h [33]: 0.978 h
- MRT inf [34]: 1.04 h
- half-life [35]: 3.13 h
- Tmax [36]: 0.333 h
- Cmax [37]: 5530 ng/mL
- AUC(0-t) at 24 h [38]: 26600 ng·h/mL
- AUC(0-inf) [39]: 29200 ng·h/mL
- MRT last at 24 h [40]: 4.39 h
- MRT inf [41]: 6.06 h
- bioavailability [42]: 62.9%
- Activity (MCF7 [15]): Active
- Activity [16]: Non-Toxic
- Activity [17]: Non-Toxic
- Activity [18]: Non-Toxic
- Activity [19]: Non-Toxic
- Activity [20]: Non-Toxic
- Activity (MCF7 [21]): Active
- Activity (Mus musculus [22]): Active
- Activity (Mus musculus [23]): Active
- Activity [24]: Non-Toxic
